This note sets out measurements from patent US20110105397A1, “METHOD FOR TREATING HEART FAILURE WITH STRESSCOPIN-LIKE PEPTIDES” (priority 2009, published 2011).

For the experiment, the target named is T1, human CRHR2 (Homo sapiens, UniProt Q13324).
T1 construct: expressed in transfected cells
T1 sequence (Q13324 1-411): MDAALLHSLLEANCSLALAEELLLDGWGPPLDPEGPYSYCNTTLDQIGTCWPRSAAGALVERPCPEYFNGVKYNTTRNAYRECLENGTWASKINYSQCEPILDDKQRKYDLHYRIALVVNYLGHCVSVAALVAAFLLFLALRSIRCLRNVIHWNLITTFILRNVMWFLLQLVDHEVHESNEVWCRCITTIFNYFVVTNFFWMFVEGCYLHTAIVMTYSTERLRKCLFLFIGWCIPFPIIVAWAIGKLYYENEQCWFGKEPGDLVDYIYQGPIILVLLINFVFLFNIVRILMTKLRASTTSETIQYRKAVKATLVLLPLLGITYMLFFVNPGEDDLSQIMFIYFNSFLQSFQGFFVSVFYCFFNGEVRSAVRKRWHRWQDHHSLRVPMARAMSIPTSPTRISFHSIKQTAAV
Put plainly: cAMP assay, h-CRHR2 transfected SK-N-MC cells. The note with it: for EC50: read-out: pA50 (converted); for Log DR [M]: h-SCP control pA50 minus test compound pA50 within the same assay batch. It counts as cell-based. An outline of the steps: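 Intracellular cAMP was quantified by radioligand competition against a cAMP standard curve after HCl lysis of h-CRHR2-transfected SK-N-MC cells. These cells had been exposed to peptides from 1 pM to 1 μM for 1 h at 37 °C with IBMX. Responses were scaled to the daily h-SCP maximum and fitted to the Hill equation to give A50/pA50.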
In general terms: cAMP levels reflect the balance of adenylyl cyclase and phosphodiesterase activity.

The mark [1] stands for this setting: Table 13, cysteine mutation, N-ethylmaleimide capping, pegylation.

“And” between values parts separate entries of the source, which are not always exact repeats. Identical values can stand only once. Like-named read-outs stand apart in the source and are kept apart here. Where a SMILES comes first, the peptide text is derived from it. Where no end group is shown, it is not given here. The star is where a group is joined. Succinimide(1-Et,3-yl) = CCN1C(=O)CC(*)C1=O

For the molecule “TKFTLSCDVPTNIMNLLFNIAKAKNLRAQAAANAHLMAQI-NH2 [SEQ ID NO: 8, TKFTLSCDVPTNIMNLLFNIAKAKNLRAQAAANAHLMAQI-NH2]”, the EC50 under setting [1] is roughly 151 nM. Further, where the note is “Table 13”, the “Log DR [M]” value came to 2.86.
For “H-TKFTLSLDVPTNCMNLLFNIAKAKNLRAQAAANAHLMAQI-NH2 [SEQ ID NO: 14, TKFTLSLDVPTNCMNLLFNIAKAKNLRAQAAANAHLMAQI-NH2]” the same measures were roughly 45.7 nM and greater than 2.
For the molecule “TKFTLSLDVPTNIMNLLFNIAKACNLRAQAAANAHLMAQI-NH2 [SEQ ID NO: 25, TKFTLSLDVPTNIMNLLFNIAKACNLRAQAAANAHLMAQI-NH2]”, under setting [1], the EC50 is 0.676 nM. Further, the “Log DR [M]” value (Table 13) is on record as 0.35.
For “H-TKFTLSLDVPTNIMNLLFNIAKAKNLRAQAACNAHLMAQI-NH2 [SEQ ID NO: 33, TKFTLSLDVPTNIMNLLFNIAKAKNLRAQAACNAHLMAQI-NH2]” the same measures were 0.851 nM and 0.45.
Take “TKFTLSLDVPTNIMNLLFNIAKAKNLRAQAAANAHLMAQC-NH2 [SEQ ID NO: 41, TKFTLSLDVPTNIMNLLFNIAKAKNLRAQAAANAHLMAQC-NH2]”: the EC50 under setting [1] was 35.5 nM. In addition, under “Table 13”, the “Log DR [M]” value is 2.07.
For `CC[C@H](C)[C@H](NC(=O)[C@H](CCC(N)=O)NC(=O)[C@H](C)NC(=O)[C@H](CCSC)NC(=O)[C@H](CC(C)C)NC(=O)[C@H](Cc1c[nH]cn1)NC(=O)[C@H](C)NC(=O)[C@H](CC(N)=O)NC(=O)[C@H](C)NC(=O)[C@H](C)NC(=O)[C@H](C)NC(=O)[C@H](CCC(N)=O)NC(=O)[C@H](C)NC(=O)[C@H](CCCNC(=N)N)NC(=O)[C@H](CC(C)C)NC(=O)[C@H](CC(N)=O)NC(=O)[C@H](CCCCN)NC(=O)[C@H](C)NC(=O)[C@H](CCCCN)NC(=O)[C@H](C)NC(=O)[C@H](CSC1CC(=O)N(CC)C1=O)NC(=O)[C@H](CC(N)=O)NC(=O)[C@H](Cc1ccccc1)NC(=O)[C@H](CC(C)C)NC(=O)[C@H](CC(C)C)NC(=O)[C@H](CC(N)=O)NC(=O)[C@H](CCSC)NC(=O)[C@@H](NC(=O)[C@H](CC(N)=O)NC(=O)[C@@H](NC(=O)[C@@H]1CCCN1C(=O)[C@@H](NC(=O)[C@H](CC(=O)O)NC(=O)[C@H](CC(C)C)NC(=O)[C@H](CO)NC(=O)[C@H](CC(C)C)NC(=O)[C@@H](NC(=O)[C@H](Cc1ccccc1)NC(=O)[C@H](CCCCN)NC(=O)[C@@H](N)[C@@H](C)O)[C@@H](C)O)C(C)C)[C@@H](C)O)[C@@H](C)CC)C(N)=O` (stereo partly drawn) [SEQ ID NO: 51, TKFTL SLDVP TNIMN LLFNC(-NES) AKAKN LRAQA AANAH LMAQI-NH2] (H-TKFTLSLDVPTNIMNLLFNC(Succinimide(1-Et,3-yl))AKAKNLRAQAAANAHLMAQI-NH2; N-terminus assumed), the EC50 under setting [1] is 1.62 nM. For the setting “Table 13”, the “Log DR [M]” value was found to be 0.68.
Take “TKFTLSLDVCTNIMNLLFNIAKAKNLRAQAAANAHLMAQI-NH2 [SEQ ID NO: 11, TKFTLSLDVCTNIMNLLFNIAKAKNLRAQAAANAHLMAQI-NH2]”: the EC50 under setting [1] is 1.74 nM. Also, for the setting “Table 13”, the “Log DR [M]” value amounted to 0.82.
Take “H-TKFTLSLDVPTNIMNLLFNIAKAKNLRAQAAANAHLMCQI-NH2 [SEQ ID NO: 39, TKFTLSLDVPTNIMNLLFNIAKAKNLRAQAAANAHLMCQI-NH2]”: the EC50 under setting [1] was 0.617 nM. For the same molecule, for the setting “Table 13”, the “Log DR [M]” value turned out to be 0.41.
Take “TKFTLSLDVPTNIMNLLFNICKAKNLRAQAAANAHLMAQI-NH2 [SEQ ID NO: 22, TKFTLSLDVPTNIMNLLFNICKAKNLRAQAAANAHLMAQI-NH2]”: under setting [1], the EC50 was 0.676 nM. Moreover, under “Table 13”, the “Log DR [M]” value was found to be 0.52.
For `CC[C@H](C)[C@H](NC(=O)[C@H](CCC(N)=O)NC(=O)[C@H](C)NC(=O)[C@H](CCSC)NC(=O)[C@H](CC(C)C)NC(=O)[C@H](Cc1c[nH]cn1)NC(=O)[C@H](C)NC(=O)[C@H](CC(N)=O)NC(=O)[C@H](CSC1CC(=O)N(CC)C1=O)NC(=O)[C@H](C)NC(=O)[C@H](C)NC(=O)[C@H](CCC(N)=O)NC(=O)[C@H](C)NC(=O)[C@H](CCCNC(=N)N)NC(=O)[C@H](CC(C)C)NC(=O)[C@H](CC(N)=O)NC(=O)[C@H](CCCCN)NC(=O)[C@H](C)NC(=O)[C@H](CCCCN)NC(=O)[C@H](C)NC(=O)[C@@H](NC(=O)[C@H](CC(N)=O)NC(=O)[C@H](Cc1ccccc1)NC(=O)[C@H](CC(C)C)NC(=O)[C@H](CC(C)C)NC(=O)[C@H](CC(N)=O)NC(=O)[C@H](CCSC)NC(=O)[C@@H](NC(=O)[C@H](CC(N)=O)NC(=O)[C@@H](NC(=O)[C@@H]1CCCN1C(=O)[C@@H](NC(=O)[C@H](CC(=O)O)NC(=O)[C@H](CC(C)C)NC(=O)[C@H](CO)NC(=O)[C@H](CC(C)C)NC(=O)[C@@H](NC(=O)[C@H](Cc1ccccc1)NC(=O)[C@H](CCCCN)NC(=O)[C@@H](N)[C@@H](C)O)[C@@H](C)O)C(C)C)[C@@H](C)O)[C@@H](C)CC)[C@@H](C)CC)C(N)=O` (stereo partly drawn) [SEQ ID NO: 45, TKFTLSLDVPTNIMNLLFNIAKAKNLRAQAAC(-NES)NAH LMAQI-NH2] (H-TKFTLSLDVPTNIMNLLFNIAKAKNLRAQAAC(Succinimide(1-Et,3-yl))NAHLMAQI-NH2; N-terminus assumed) the same measures were 0.331 nM and −0.01.
For “LSLDVPTNIMNLLFNIAKAKNLRAQAAANAHLMAQI-NH2 [SEQ ID NO: 109, LSLDVPTNIMNLLFNIAKAKNLRAQAAANAHLMAQI-NH2]”, for the setting “Table 12”, the nH came to 0.74. Also, the EC50 (Table 12, amidation and N-terminal deletions, normalized to maximum response to h-SCP, 3-5 replicate experiments) was 46.8 nM and 45.7 nM. For the same molecule, the αmax (Table 12, normalized to the maximum response to h-SCP) stood at 109.6.
On to “TKFTLSLDVPTNIMNLLFNIAKAKNCRAQAAANAHLMAQI-NH2 [SEQ ID NO: 27, TKFTLSLDVPTNIMNLLFNIAKAKNCRAQAAANAHLMAQI-NH2]”, for which the EC50 under setting [1] is 1.74 nM. Moreover, the “Log DR [M]” value (Table 13) was determined as 0.76.
For “TKFTLSLDVPTNICNLLFNIAKAKNLRAQAAANAHLMAQI-NH2 [SEQ ID NO: 15, TKFTLSLDVPTNICNLLFNIAKAKNLRAQAAANAHLMAQI-NH2]” the same measures were 2.09 nM and 0.90.
For “TKFTLSLDVPTNIMNLLFNIAKAKNLRAQAAANACLMAQI-NH2 [SEQ ID NO: 36, TKFTLSLDVPTNIMNLLFNIAKAKNLRAQAAANACLMAQI-NH2]” the same measures were 0.794 nM and 0.42.
Turning to `CC[C@H](C)[C@H](NC(=O)[C@H](CCC(N)=O)NC(=O)[C@H](C)NC(=O)[C@H](CCSC)NC(=O)[C@H](CC(C)C)NC(=O)[C@H](Cc1c[nH]cn1)NC(=O)[C@H](C)NC(=O)[C@H](CC(N)=O)NC(=O)[C@H](C)NC(=O)[C@H](C)NC(=O)[C@H](C)NC(=O)[C@H](CCC(N)=O)NC(=O)[C@H](C)NC(=O)[C@H](CCCNC(=N)N)NC(=O)[C@H](CC(C)C)NC(=O)[C@H](CC(N)=O)NC(=O)[C@H](CCCCN)NC(=O)[C@H](C)NC(=O)[C@H](CCCCN)NC(=O)[C@H](C)NC(=O)[C@@H](NC(=O)[C@H](CC(N)=O)NC(=O)[C@H](Cc1ccccc1)NC(=O)[C@H](CC(C)C)NC(=O)[C@H](CSC1CC(=O)N(CC)C1=O)NC(=O)[C@H](CC(N)=O)NC(=O)[C@H](CCSC)NC(=O)[C@@H](NC(=O)[C@H](CC(N)=O)NC(=O)[C@@H](NC(=O)[C@@H]1CCCN1C(=O)[C@@H](NC(=O)[C@H](CC(=O)O)NC(=O)[C@H](CC(C)C)NC(=O)[C@H](CO)NC(=O)[C@H](CC(C)C)NC(=O)[C@@H](NC(=O)[C@H](Cc1ccccc1)NC(=O)[C@H](CCCCN)NC(=O)[C@@H](N)[C@@H](C)O)[C@@H](C)O)C(C)C)[C@@H](C)O)[C@@H](C)CC)[C@@H](C)CC)C(N)=O` (stereo partly drawn) [SEQ ID NO: 54, TKFTL SLDVP TNIMN C(-NES)LFNI AKAKN LRAQA AANAH LMAQI-NH2] (H-TKFTLSLDVPTNIMNC(Succinimide(1-Et,3-yl))LFNIAKAKNLRAQAAANAHLMAQI-NH2; N-terminus assumed), the EC50 under setting [1] was 0.282 nM. In addition, the “Log DR [M]” value (Table 13) is listed as −0.08.
Turning to `CC[C@H](C)[C@H](NC(=O)[C@H](CCC(N)=O)NC(=O)[C@H](C)NC(=O)[C@H](CCSC)NC(=O)[C@H](CC(C)C)NC(=O)[C@H](Cc1c[nH]cn1)NC(=O)[C@H](C)NC(=O)[C@H](CC(N)=O)NC(=O)[C@H](C)NC(=O)[C@H](C)NC(=O)[C@H](C)NC(=O)[C@H](CCC(N)=O)NC(=O)[C@H](C)NC(=O)[C@H](CCCNC(=N)N)NC(=O)[C@H](CSC1CC(=O)N(CC)C1=O)NC(=O)[C@H](CC(N)=O)NC(=O)[C@H](CCCCN)NC(=O)[C@H](C)NC(=O)[C@H](CCCCN)NC(=O)[C@H](C)NC(=O)[C@@H](NC(=O)[C@H](CC(N)=O)NC(=O)[C@H](Cc1ccccc1)NC(=O)[C@H](CC(C)C)NC(=O)[C@H](CC(C)C)NC(=O)[C@H](CC(N)=O)NC(=O)[C@H](CCSC)NC(=O)[C@@H](NC(=O)[C@H](CC(N)=O)NC(=O)[C@@H](NC(=O)[C@@H]1CCCN1C(=O)[C@@H](NC(=O)[C@H](CC(=O)O)NC(=O)[C@H](CC(C)C)NC(=O)[C@H](CO)NC(=O)[C@H](CC(C)C)NC(=O)[C@@H](NC(=O)[C@H](Cc1ccccc1)NC(=O)[C@H](CCCCN)NC(=O)[C@@H](N)[C@@H](C)O)[C@@H](C)O)C(C)C)[C@@H](C)O)[C@@H](C)CC)[C@@H](C)CC)C(N)=O` (stereo partly drawn) [SEQ ID NO: 48, TKFTLSLDVPTNIMNLLFNIAKAKNC(-NES)RAQA AANAH LMAQI-NH2] (H-TKFTLSLDVPTNIMNLLFNIAKAKNC(Succinimide(1-Et,3-yl))RAQAAANAHLMAQI-NH2; N-terminus assumed), under setting [1], the EC50 is 0.363 nM. In addition, the “Log DR [M]” value (Table 13) is reported as 0.03.
